{
  "source": "patent US7419680B2",
  "about": "“Calcium phosphate-based materials containing zinc, magnesium, fluoride and carbonate” (New York University, priority 2003, dated 2008)",
  "origin": "cited, not measured here",
  "details": "earlier studies",
  "data": [
    {"substance": "b-alanyl-L-histadanato zinc", "values": [
      {"measurement": "bone density / bone loss in vivo", "value": "effective in increasing bone density or in preventing bone loss in vivo"}
    ]}
  ]
}
